Patent US20130004936A1, “SUPERCOOLING PROMOTING AGENT” (National University Corporation Hokkaido Universit, priority 2010, published 2013)

Legend:
Type in all cases: physicochemical
[1] = Supercooling activity, droplets on cooled copper plate, silver iodide as ice nucleus substance; conditions: for supercooling activity: against an ice nucleus substance AgI, concentration not given; for freezing temperature (INT50): 0.1 mass % substance, 10 mM AgI, cooling 0.2° C./min
Description: (§1) In the present invention, a supercooling activity (also referred to as ice nucleus formation inhibitory activity) was measured by the following method. That is, an object to be measured was mixed at […] in a buffer containing an ice nucleus substance to prepare a solution, and many 2-μL liquid droplets of the solution were placed on a copper plate where the temperature could be controlled. The copper plate was cooled at 0.2° C./min, and the number of frozen liquid droplets was visually observed. The temperature at which 50% of the liquid droplets were frozen was defined as a freezing temperature, and a difference between the freezing temperature of the solution including the object to be measured and the ice nucleus substance and the freezing temperature of a solution including only the ice nucleus substance and the buffer (control) (INT50 (° C.)) was defined as a supercooling activity. As the buffer, a 50 mM potassium phosphate buffer (pH 7.0) was used.
In Examples 4 to 8 below, 10 mM silver iodide (AgI) (manufactured by NACALAI TESQUE, INC.), 2 mg/mL dead bacterial cells of an ice nucleation active bacterium Erwinia ananas (manufactured by Wako Pure Chemical Industries, Ltd.), 2 mg/mL dead bacterial cells of an ice nucleation active bacterium Xanthomonas campestris (manufactured by Wako Pure Chemical Industries, Ltd.), and 120 mM phloroglucinol (manufactured by TOKYO CHEMICAL […] CO., LTD.) were used as ice nucleus substances, and ultrapure water obtained by passing water through an ultrapure water device manufactured by Millipore Corporation was used (MilliQ Water). A substance to be measured (1 mg/mL) was mixed in a buffer containing any one of the ice nucleus substances and ultrapure water (MilliQ Water), and the supercooling activities were measured by the above-mentioned method. A difference between the freezing temperature of the solution containing the substance to be measured and the ice nucleus substance and the freezing temperature of the solution including only the ice nucleus substance, and a difference between the freezing temperature of pure water having dissolved therein the substance to be measured and the freezing temperature of only pure water were determined as supercooling activities (ice nucleus formation inhibitory activities) (see FIGS. 8 to 11 and Tables 1 to 4).

[2] = system: dead bacterial cells of an ice nucleation active bacterium (Erwinia ananas); experiment: Supercooling activity (ice nucleus formation inhibitory activity), 2-μL droplets on cooled copper plate, Erwinia ananas as ice nucleus substance; conditions: for activity that allows water to be supercooled: 2 mg/mL Erwinia ananas, substance 0.01 to 3 mg/mL (FIG. 6); for freezing temperature (INT50): 0.1 mass % substance, 2 mg/mL dead E. ananas cells, cooling 0.2° C./min, temperature at which 50% of droplets froze
Description: as §1
The water suspension of the crude extract was centrifuged at 20° C. and 14,000 G, and the supernatant was collected. 300 mL of the supernatant and 600 mL of ethyl acetate were mixed, and the mixture was divided into a water-soluble part and an ethyl acetate-soluble part by a separating funnel, followed by drying. Supercooling activities of the parts were measured by the above-mentioned method. Dead bacterial cells of an ice nucleation active bacterium (Erwinia ananas) (manufactured by Wako Pure Chemical Industries, Ltd.) were used as an ice nucleus substance.
The fractions K to S obtained above were analyzed by high-performance liquid chromatography (column: PC hydrophilic interaction chromatography column (HILIC), solvent: acetonitrile:water=9:1, flow rate: 1 mL/min, detector: UV 280 nm). […] The three substances are known substances, and their structures were confirmed by ^1H-NMR. FIGS. 3 to 5 show the resultant ^1H-NMR charts. FIG. 6 show the supercooling activity of water containing each of the three substances with 2 mg/mL Erwinia ananas serving as an ice nucleus-forming substance, together with control data in the case of containing none of the three substances.
A substance to be measured (1 mg/mL) was mixed in a buffer containing any one of the ice nucleus substances and ultrapure water (MilliQ Water), and the supercooling activities were measured by the above-mentioned method. A difference between the freezing temperature of the solution containing the substance to be measured and the ice nucleus substance and the freezing temperature of the solution including only the ice nucleus substance, and a difference between the freezing temperature of pure water having dissolved therein the substance to be measured and the freezing temperature of only pure water were determined as supercooling activities (ice nucleus formation inhibitory activities) (see FIGS. 8 to 11 and Tables 1 to 4).

[3] = system: dead bacterial cells of an ice nucleation active bacterium Xanthomonas campestris; experiment: Supercooling activity, droplets on cooled copper plate, Xanthomonas campestris as ice nucleus substance; conditions: 0.1 mass % substance; 2 mg/mL dead X. campestris cells; cooling 0.2° C./min
Description: as §1, with “used. […]” for “used.”

[4] = Supercooling activity, droplets on cooled copper plate, phloroglucinol as ice nucleus substance; conditions: 0.1 mass % substance; 120 mM phloroglucinol; cooling 0.2° C./min
Description: as §1
(§2) In Examples 4 to 8 below, 10 mM silver iodide (AgI) (manufactured by NACALAI TESQUE, INC.), 2 mg/mL dead bacterial cells of an ice nucleation active bacterium Erwinia ananas (manufactured by Wako Pure Chemical Industries, Ltd.), 2 mg/mL dead bacterial cells of an ice nucleation active bacterium Xanthomonas campestris (manufactured by Wako Pure Chemical Industries, Ltd.), and 120 mM phloroglucinol (manufactured by TOKYO CHEMICAL […] CO., LTD.) were used as ice nucleus substances, and ultrapure water obtained by passing water through an ultrapure water device manufactured by Millipore Corporation was used (MilliQ Water). A substance to be measured (1 mg/mL) was mixed in a buffer containing any one of the ice nucleus substances and ultrapure water (MilliQ Water), and the supercooling activities were measured by the above-mentioned method. […]

[5] = Supercooling activity, droplets on cooled copper plate, ultrapure water without ice nucleus substance; conditions: 0.1 mass % substance; ultrapure water (MilliQ Water); cooling 0.2° C./min
Description: as §1, §2

O=C(O)/C=C/c1ccc(O)c(O)c1 [CaA, caffeic acid]
supercooling activity [1]: −1.9 °C

O=C(OC[C@H]1O[C@@H](OC(=O)c2cc(O)c(O)c(O)c2)[C@H](OC(=O)c2cc(O)c(O)c(O)c2)[C@@H](O)[C@@H]1O)c1cc(O)c(O)c(O)c1 [1,2,6-tri-O-galloyl-β-D-glucose]
activity that allows water to be supercooled [2]: about 5 °C

O=C(O[C@@H]1Cc2c(O)cc(O)cc2O[C@@H]1c1ccc(O)c(O)c1)c1cc(O)c(O)c(O)c1 [ECG, epicatechin gallate]
freezing temperature (INT50) [2]: −8.4 °C | freezing temperature (INT50) [1]: −7.8 °C | freezing temperature (INT50) [3]: −8.7 °C | freezing temperature (INT50) [4]: −9.6 °C | freezing temperature (INT50) [5]: −18.7 °C

O=C(OC[C@H]1O[C@@H](OC(=O)c2cc(O)c(O)c(O)c2)[C@H](OC(=O)c2cc(O)c(O)c(O)c2)[C@@H](OC(=O)c2cc(O)c(O)c(O)c2)[C@@H]1O)c1cc(O)c(O)c(O)c1 [1,2,3,6-tetra-O-galloyl-β-D-glucose]
activity that allows water to be supercooled [2]: about 5 °C

O=C(O)c1cc(O)c(O)c(O)c1 [GA, gallic acid]
supercooling activity [1]: −1.2 °C

COC(=O)c1cc(O)c(O)c(O)c1 [MG, methyl gallate]
supercooling activity [1]: −3.3 °C

O=C(/C=C/c1ccc(O)c(O)c1)O[C@@H]1C[C@](O)(C(=O)O)C[C@@H](O)[C@H]1O [ChA, chlorogenic acid]
supercooling activity [1]: −0.6 °C

2,3,6-tri-O-galloyl-α,β-D-hamamelose
activity that allows water to be supercooled [2]: about 5 °C

Oc1cc(O)c2c(c1)O[C@H](c1cc(O)c(O)c(O)c1)[C@H](O)C2 [EGC, epigallocatechin]
freezing temperature (INT50) [2]: −5.7 °C | freezing temperature (INT50) [1]: −6.9 °C | freezing temperature (INT50) [4]: −8.8 °C | freezing temperature (INT50) [5]: −15.8 °C

O=c1oc2c(O)c(O)cc3c(=O)oc4c(O)c(O)cc1c4c23 [EA, ellagic acid]
supercooling activity [1]: −0.3 °C

O=C(O[C@@H]1Cc2c(O)cc(O)cc2O[C@@H]1c1cc(O)c(O)c(O)c1)c1cc(O)c(O)c(O)c1 [EGCG, epigallocatechin gallate]
freezing temperature (INT50) [2]: −8.3 °C | freezing temperature (INT50) [1]: −6.9 °C | freezing temperature (INT50) [3]: −8.9 °C | freezing temperature (INT50) [4]: −8.4 °C | freezing temperature (INT50) [5]: −20.0 °C
